# Earlier results as cited in patent US20220257469A1, “PHARMACEUTICAL UNIT DOSE SYSTEMS FOR ORAL DRY SOLUTION AND SUSPENSION” (Brillian Pharma Inc., priority 2019, published 2022).
# Details: liquid suspension, in five days, not refrigerated
smiles,measurement,value
O=C(O)[C@H]1/C(=C/CO)O[C@@H]2CC(=O)N21 [Clavulanic acid],loss of potency,30-40%
